Patent publication US10301280B2 (Plexxikon Inc., priority 2012, dated 2019)

What follows are molecules tested against c-kit mutant D816V (Homo sapiens (Human), UniProt P10721, D816V/DEL694-753) (assay: c-Kit mutant D816V biochemical assay (AlphaScreen)). Details: c-kit D816V biochemical inhibitory activity.
Chain of c-kit mutant D816V (P10721 other isoform, or with tags, fused parts or gaps D816V/del 694-753): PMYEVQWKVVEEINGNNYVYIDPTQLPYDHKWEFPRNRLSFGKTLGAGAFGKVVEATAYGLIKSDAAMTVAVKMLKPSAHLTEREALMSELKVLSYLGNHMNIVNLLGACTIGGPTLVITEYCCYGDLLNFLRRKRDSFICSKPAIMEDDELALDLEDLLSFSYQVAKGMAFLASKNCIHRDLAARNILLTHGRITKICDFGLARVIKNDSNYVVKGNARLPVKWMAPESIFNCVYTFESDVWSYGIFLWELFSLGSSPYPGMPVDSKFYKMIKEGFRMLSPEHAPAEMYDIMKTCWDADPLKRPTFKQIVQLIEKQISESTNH
How it was run: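 His-tagged c-Kit D816V kinase domain (551-934, Δ694-753, E. coli) phosphorylating 30 nM biotin-(E4Y)10 at 10 μM ATP in HEPES pH 7.2 with Mg/Mn, 5% DMSO, 30 min at room temperature. PY20-acceptor/streptavidin-donor AlphaScreen detection after EDTA stop. IC50 from 8-point 1:3 titration.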
`O=C(Nc1cnc2[nH]c(-c3ccccc3)cc2c1)c1ncccc1F` [P-2012, 3-fluoro-N-(2-phenyl-1H-pyrrolo[2,3-b]pyridin-5-yl)pyridine-2-carboxamide] gave an IC50 of 1 to 10 µM. With `Cc1noc(C)c1C(=O)Nc1cnc2[nH]c(-c3ccccc3)cc2c1` [P-2013, 3,5-dimethyl-N-(2-phenyl-1H-pyrrolo[2,3-b]pyridin-5-yl)isoxazole-4-carboxamide] the IC50 was 10 to 200 µM. For `O=C(Nc1cnc2[nH]c(-c3ccccc3)cc2c1)c1cn[nH]n1` [P-2015, N-(2-phenyl-1H-pyrrolo[2,3-b]pyridin-5-yl)-2H-triazole-4-carboxamide], the IC50 was 1 to 10 µM. Molecule `Cc1cccnc1C(=O)Nc1cnc2[nH]c(-c3ccccc3)cc2c1` [P-2016, 3-methyl-N-(2-phenyl-1H-pyrrolo[2,3-b]pyridin-5-yl)pyridine-2-carboxamide] has an IC50 of 1 to 10 µM. Molecule `Cc1cc(C(=O)Nc2cnc3[nH]c(-c4ccc(F)cc4)cc3c2)[nH]n1` [P-2019, N-[2-(4-fluorophenyl)-1H-pyrrolo[2,3-b]pyridin-5-yl]-3-methyl-1H-pyrazole-5-carboxamide] has an IC50 of 0.0001 to 1 µM. Molecule `Cc1n[nH]c(C(=O)Nc2cnc3[nH]c(-c4ccc(F)cc4)cc3c2)c1Cl` [P-2023, 4-chloro-N-[2-(4-fluorophenyl)-1H-pyrrolo[2,3-b]pyridin-5-yl]-3-methyl-1H-pyrazole-5-carboxamide] has an IC50 of 0.0001 to 1 µM. `Cc1n[nH]c(C(=O)Nc2cnc3[nH]c(-c4ccc(F)cc4)cc3c2)c1C` [P-2024, N-[2-(4-fluorophenyl)-1H-pyrrolo[2,3-b]pyridin-5-yl]-3,4-dimethyl-1H-pyrazole-5-carboxamide] was tested, and the IC50 was 0.0001 to 1 µM. Work on `CC(=O)Nc1cccc(C(=O)Nc2cnc3[nH]c(-c4ccc(F)cc4)cc3c2)c1` [P-2026, 3-acetamido-N-[2-(4-fluorophenyl)-1H-pyrrolo[2,3-b]pyridin-5-yl]benzamide] yielded an IC50 of 10 to 200 µM. Molecule `O=C(Nc1cnc2[nH]c(-c3ccc(F)cc3)cc2c1)c1cccc2n[nH]cc12` [P-2027, N-[2-(4-fluorophenyl)-1H-pyrrolo[2,3-b]pyridin-5-yl]-2H-indazole-4-carboxamide] has an IC50 of 1 to 10 µM. Molecule `Cc1c[nH]nc1C(=O)Nc1cnc2[nH]c(-c3ccc(F)cc3)cc2c1` [P-2029, N-[2-(4-fluorophenyl)-1H-pyrrolo[2,3-b]pyridin-5-yl]-4-methyl-1H-pyrazole-3-carboxamide] has an IC50 of 0.0001 to 1 µM. Work on `CCn1nccc1S(=O)(=O)Nc1cnc2[nH]c(-c3ccc(F)cc3)cc2c1` [P-2030, 2-ethyl-N-[2-(4-fluorophenyl)-1H-pyrrolo[2,3-b]pyridin-5-yl]pyrazole-3-sulfonamide] yielded an IC50 of 10 to 200 µM. In the case of `Cc1cc(C(=O)Nc2cnc3[nH]c(C4=CCN(C(=O)N5CCOCC5)CC4)cc3c2)n[nH]1` [P-2031, 5-methyl-N-[2-[1-(morpholine-4-carbonyl)-3,6-dihydro-2H-pyridin-4-yl]-1H-pyrrolo[2,3-b]pyridin-5-yl]-1H-pyrazole-3-carboxamide], the IC50 is reported as 0.0001 to 1 µM. `Cc1n[nH]c(C(=O)Nc2cnc3[nH]ccc3c2)c1C` [P-2032, 3,4-dimethyl-N-(1H-pyrrolo[2,3-b]pyridin-5-yl)-1H-pyrazole-5-carboxamide] was tested, and the IC50 was 1 to 10 µM. `Cc1n[nH]c(C(=O)Nc2cnc3c(c2)cc(C2=CCN(C(=O)N4CCOCC4)CC2)n3S(=O)(=O)c2ccccc2)c1C` [P-2033, N-[1-(benzenesulfonyl)-2-[1-(morpholine-4-carbonyl)-3,6-dihydro-2H-pyridin-4-yl]pyrrolo[2,3-b]pyridin-5-yl]-3,4-dimethyl-1H-pyrazole-5-carboxamide] gave an IC50 of 0.0001 to 1 µM. With `Cc1n[nH]c(C(=O)Nc2cnc3[nH]c(C4=CCN(C(=O)N5CCOCC5)CC4)cc3c2)c1C` [P-2034, 3,4-dimethyl-N-[2-[1-(morpholine-4-carbonyl)-3,6-dihydro-2H-pyridin-4-yl]-1H-pyrrolo[2,3-b]pyridin-5-yl]-1H-pyrazole-5-carboxamide] the IC50 was 0.0001 to 1 µM. Work on `Cc1n[nH]c(C(=O)Nc2cnc3[nH]c(C4=CCN(C(=O)N5CCOCC5)CC4)cc3c2)c1Cl` [P-2036, 4-chloro-3-methyl-N-[2-[1-(morpholine-4-carbonyl)-3,6-dihydro-2H-pyridin-4-yl]-1H-pyrrolo[2,3-b]pyridin-5-yl]-1H-pyrazole-5-carboxamide] yielded an IC50 of 0.0001 to 1 µM. For `Cc1n[nH]nc1C(=O)Nc1cnc2[nH]c(-c3ccc(F)cc3)cc2c1` [P-2037, N-[2-(4-fluorophenyl)-1H-pyrrolo[2,3-b]pyridin-5-yl]-5-methyl-2H-triazole-4-carboxamide], the IC50 was 0.0001 to 1 µM. In the case of `Cc1nn(C)cc1-c1cc2cc(NC(=O)c3[nH]nc(C)c3C)cnc2[nH]1` [P-2038, N-[2-(1,3-dimethylpyrazol-4-yl)-1H-pyrrolo[2,3-b]pyridin-5-yl]-4,5-dimethyl-1H-pyrazole-3-carboxamide], the IC50 is reported as 0.0001 to 1 µM. Molecule `Cc1[nH]nc(C(=O)Nc2cnc3[nH]c(C4=CCN(C(=O)C5CC5)CC4)cc3c2)c1Cl` [P-2039, 4-chloro-N-[2-[1-(cyclopropanecarbonyl)-3,6-dihydro-2H-pyridin-4-yl]-1H-pyrrolo[2,3-b]pyridin-5-yl]-5-methyl-1H-pyrazole-3-carboxamide] has an IC50 of 0.0001 to 1 µM. For `Cc1n[nH]c(C(=O)Nc2cnc3[nH]nc(C)c3c2)c1C` [P-2040, 3,4-dimethyl-N-(3-methyl-1H-pyrazolo[3,4-b]pyridin-5-yl)-1H-pyrazole-5-carboxamide], the IC50 was 0.0001 to 1 µM. Molecule `Cc1cc(C(=O)Nc2cnc3[nH]c(C4=CCN(C(=O)C5CC5)CC4)cc3c2)n[nH]1` [P-2042, N-[2-[1-(cyclopropanecarbonyl)-3,6-dihydro-2H-pyridin-4-yl]-1H-pyrrolo[2,3-b]pyridin-5-yl]-5-methyl-1H-pyrazole-3-carboxamide] has an IC50 of 0.0001 to 1 µM. Molecule `Cc1[nH]nc(C(=O)Nc2cnc3[nH]c(C4=CCN(C(=O)C5CC5)CC4)cc3c2)c1C` [P-2043, N-[2-[1-(cyclopropanecarbonyl)-3,6-dihydro-2H-pyridin-4-yl]-1H-pyrrolo[2,3-b]pyridin-5-yl]-4,5-dimethyl-1H-pyrazole-3-carboxamide] has an IC50 of 0.0001 to 1 µM. Molecule `Cc1n[nH]c(C(=O)Nc2cnc(Nc3ccccc3)nc2)c1C` [P-2044, N-(2-anilinopyrimidin-5-yl)-3,4-dimethyl-1H-pyrazole-5-carboxamide] has an IC50 of 0.0001 to 1 µM. In the case of `Cc1n[nH]c(C(=O)Nc2ccc(Nc3ccccc3)nc2)c1C` [P-2045, N-(6-anilino-3-pyridyl)-3,4-dimethyl-1H-pyrazole-5-carboxamide], the IC50 is reported as 0.0001 to 1 µM. `O=C(Nc1cnc2[nH]c(-c3ccc(F)cc3)cc2c1)c1n[nH]c2ccccc12` [P-2046, N-[2-(4-fluorophenyl)-1H-pyrrolo[2,3-b]pyridin-5-yl]-1H-indazole-3-carboxamide] gave an IC50 of 0.0001 to 1 µM. `O=C(Nc1cnc2[nH]c(-c3ccc(F)cc3)cc2c1)c1n[nH]c2c1CCCC2` [P-2047, N-[2-(4-fluorophenyl)-1H-pyrrolo[2,3-b]pyridin-5-yl]-4,5,6,7-tetrahydro-1H-indazole-3-carboxamide] was tested, and the IC50 was 0.0001 to 1 µM. For `Cc1n[nH]c(C(=O)Nc2cnc3[nH]c(-c4cnn(C5CCNCC5)c4)cc3c2)c1C` [P-2048, 3,4-dimethyl-N-[2-[1-(4-piperidyl)pyrazol-4-yl]-1H-pyrrolo[2,3-b]pyridin-5-yl]-1H-pyrazole-5-carboxamide], the IC50 was 0.0001 to 1 µM. `Cc1n[nH]c(C(=O)Nc2cnc3[nH]c(Cl)cc3c2)c1C` [P-2049, N-(2-chloro-1H-pyrrolo[2,3-b]pyridin-5-yl)-3,4-dimethyl-1H-pyrazole-5-carboxamide] was tested, and the IC50 was 0.0001 to 1 µM. `CCNS(=O)(=O)c1cccc(Nc2ncc(NC(=O)c3[nH]nc(C)c3C)cn2)c1` [P-2050, N-[2-[3-(ethylsulfamoyl)anilino]pyrimidin-5-yl]-3,4-dimethyl-1H-pyrazole-5-carboxamide] showed an IC50 of 1 to 10 µM. `Cc1n[nH]c(C(=O)Nc2cnc(Nc3cccc(N4CCOCC4)c3)nc2)c1C` [P-2051, 3,4-dimethyl-N-[2-(3-morpholinoanilino)pyrimidin-5-yl]-1H-pyrazole-5-carboxamide] gave an IC50 of 0.0001 to 1 µM. With `CCCS(=O)(=O)Nc1cccc(Nc2ncc(NC(=O)c3[nH]nc(C)c3C)cn2)c1` [P-2052, 3,4-dimethyl-N-[2-[3-(propylsulfonylamino)anilino]pyrimidin-5-yl]-1H-pyrazole-5-carboxamide] the IC50 was 0.0001 to 1 µM. Molecule `Cc1n[nH]c(C(=O)Nc2cnc(Nc3cccc(NS(=O)(=O)c4ccccc4)c3)nc2)c1C` [P-2053, N-[2-[3-(benzenesulfonamido)anilino]pyrimidin-5-yl]-3,4-dimethyl-1H-pyrazole-5-carboxamide] has an IC50 of 0.0001 to 1 µM. In the case of `CNC(=O)c1cccc(Nc2ncc(NC(=O)c3[nH]nc(C)c3C)cn2)c1` [P-2054, 3,4-dimethyl-N-[2-[3-(methylcarbamoyl)anilino]pyrimidin-5-yl]-1H-pyrazole-5-carboxamide], the IC50 is reported as 0.0001 to 1 µM. Molecule `CCOC(=O)Nc1cccc(Nc2ncc(NC(=O)c3[nH]nc(C)c3C)cn2)c1` [P-2055, ethyl N-[3-[[5-[(3,4-dimethyl-1H-pyrazole-5-carbonyl)amino]pyrimidin-2-yl]amino]phenyl]carbamate] has an IC50 of 0.0001 to 1 µM. In the case of `Cc1n[nH]c(C(=O)Nc2cnc3[nH]c(C4=CCN(S(C)(=O)=O)CC4)cc3c2)c1Cl` [P-2057, 4-chloro-3-methyl-N-[2-(1-methylsulfonyl-3,6-dihydro-2H-pyridin-4-yl)-1H-pyrrolo[2,3-b]pyridin-5-yl]-1H-pyrazole-5-carboxamide], the IC50 is reported as 0.0001 to 1 µM. In the case of `Cc1cc(C(=O)Nc2cnc3[nH]c(N4CCOCC4)cc3c2)[nH]n1` [P-2058, 3-methyl-N-(2-morpholino-1H-pyrrolo[2,3-b]pyridin-5-yl)-1H-pyrazole-5-carboxamide], the IC50 is reported as 0.0001 to 1 µM. `Cc1n[nH]c(C(=O)Nc2cnc3[nH]c(-c4cnc(N5CCN(C)CC5)nc4)cc3c2)c1C` [P-2160, 3,4-dimethyl-N-[2-[2-(4-methylpiperazin-1-yl)pyrimidin-5-yl]-1H-pyrrolo[2,3-b]pyridin-5-yl]-1H-pyrazole-5-carboxamide] was tested, and the IC50 was 0.0001 to 1 µM. `Cc1n[nH]c(C(=O)Nc2cnc3[nH]nc(-c4cccc(N5CCN(C(=O)OC(C)(C)C)CC5)c4)c3c2)c1C` [P-2162, tert-butyl 4-[3-[5-[(3,4-dimethyl-1H-pyrazole-5-carbonyl)amino]-1H-pyrazolo[3,4-b]pyridin-3-yl]phenyl]piperazine-1-carboxylate] gave an IC50 of 1 to 10 µM.
